# Legend:
# Trypanosoma cruzi [1] = experiment: GSK_TCAKS: pIC50 Trypanosoma cruzi viability assay using beta-GAL activity. This assay was run at single shot at 5uM compound concentration per well. The biological reagents consisted of NIH-3T3 host cells and trypomastigotes parasitic cells; both cell types were set to a 3.3 * 10^5 cells/mL dilution in assay DMEM by means of a CASY cell counter device using a 60um capillary. 6 uL of the mixture were dispensed per well (about 1 * 10^3 host-cells and 1 * 10^3 parasites) with a Multidrop Combi dispenser. […] In all wells, the percentage of DMSO never exceeded 0.5%. Plates incubated for four days at 37C, 5% CO2. The substrate used for the assay fluorescence intensity (FLINT) readout was resorufin-beta-D-galactopiranoside (Sigma-Aldrich) at 5uM per well. It was diluted in PBS supplemented with the soft detergent Igepal (Fluka).; assay type: functional, organism-based, Mus musculus; settings: Tulahuen, NIH3T3
# Trypanosoma cruzi [2] = experiment: (§1) GSK_TCAKS: pIC50 Trypanosoma cruzi Imaging: Infected Cells. […] Cells were then washed once with PBS before infection. T. cruzi trypomastigotes, collected at days 5 to 8 after infection from LLC-MK2 parasite infected cultures, were allowed to swim out for 4h at 37C from a centrifuged pellet (2,500 rpm/10 min/room temperature). Trypomastigotes were then collected and counted in a CASY Cell Counter. Trypomastigotes, in supplemented DMEM, were added to H9c2 cultures in a multiplicity of infection of 1 and incubated for 18 h. Cells were washed once with PBS before incubation of the infected H9c2 monolayer with trypsin (Life-Technologies) to detach cells from the flask. Cells were counted in a CASY Cell Counter using a 150 um capillary and their density set at 5 * 10^4 cells per mL in supplemented assay DMEM. Infected H9c2 were dispensed into 384-well poly-lysine coated assay plates at 50uL per well using a Multidrop Combi dispenser. After seeding them, the plates were incubated at 37C, 5% CO2 for 72h. Cultures were then fixed and stained by addition of 50 uL of a solution containing 8% formaldehyde and 4 uM DRAQ5 DNA dye (BioStatus, UK) per well. […] Five images were collected per well for reliable statistical analysis. Automated image analysis was performed with a script developed on Acapella High Content Imaging and Analysis Software (PerkinElmer). Output: percentage of infected cells per well as a second infection marker.; assay type: functional, organism-based, Rattus norvegicus; settings: H9c2, 4 h
# Trypanosoma cruzi [3] = experiment: GSK_TCAKS: pIC50 Trypanosoma cruzi Imaging: Amastigotes/Cell. […] Cells were then washed once with PBS before infection. T. cruzi trypomastigotes, collected at days 5 to 8 after infection from LLC-MK2 parasite infected cultures, were allowed to swim out for 4h at 37C from a centrifuged pellet (2,500 rpm/10 min/room temperature). Trypomastigotes were then collected and counted in a CASY Cell Counter. Trypomastigotes, in supplemented DMEM, were added to H9c2 cultures in a multiplicity of infection of 1 and incubated for 18 h. Cells were washed once with PBS before incubation of the infected H9c2 monolayer with trypsin (Life-Technologies) to detach cells from the flask. Cells were counted in a CASY Cell Counter using a 150 um capillary and their density set at 5 * 10^4 cells per mL in supplemented assay DMEM. Infected H9c2 were dispensed into 384-well poly-lysine coated assay plates at 50uL per well using a Multidrop Combi dispenser. After seeding them, the plates were incubated at 37C, 5% CO2 for 72h. Cultures were then fixed and stained by addition of 50 uL of a solution containing 8% formaldehyde and 4 uM DRAQ5 DNA dye (BioStatus, UK) per well. […] Five images were collected per well for reliable statistical analysis. Automated image analysis was performed with a script developed on Acapella High Content Imaging and Analysis Software (PerkinElmer). Output: number of amastigotes per cell as infection level measurement.; assay type: functional, organism-based, Rattus norvegicus; settings: H9c2, 4 h
# Trypanosoma cruzi [4] = experiment: as §1, with “H2C9” for “Trypanosoma cruzi”, “H9c2 Host Cardiomyocytes.” for “Infected Cells.”, “Number” for “percentage”, “H9c2 Host Cardiomyocytes nuclei to determine drug-related cytotoxicity.” for “infected cells per well as a second infection marker.”; assay type: functional, organism-based, Rattus norvegicus; settings: H9c2, 4 h
# Leishmania donovani [5] = experiment: GSK_TCAKS: pIC50 Leishmania donovani viability assay using fluorescence intensity. Assay plates (1536-well) were prepared by adding 30nL per well of compound. For single shot assay, the final compound concentration was 5uM. […] Briefly, eGFP LdBOB axenic amastigotes were harvested, fixed and counted in a CASY cell counter (Roche-Applied Science). A final concentration of 1.5 * 10^5 cells per well were prepared in amastigote media containing 500 U/mL penicillin/streptomycin (Invitrogen) and 6uL was dispensed to each experimental well using a Multidrop Combi dispenser (Thermo Scientific). 6uL of assay media was dispensed to control columns used as reference for 100% compound response. Following incubation for 72 h at 37C, 5% CO2, 2 uL of resazurin was added to each well at a final concentration of 0.5 mM in phosphate buffered saline (PBS) with IGEPAL (Sigma-Aldrich), 0.05% (v/v).; assay type: functional, organism-based
# Leishmania donovani [6] = experiment: (§2) GSK_TCAKS: pIC50 Leishmania donovani Imaging: Infected Macrophages. Assay plates (384-well) were prepared by adding 250nL of compound to each well. For single shot assay, the final compound concentration was 5 uM. […] Automated image analysis was performed with a script developed on Acapella High Content Imaging and Analysis Software (PerkinElmer). Output: Percent of infected macrophage cells were reported for each well.; assay type: functional, organism-based, Homo sapiens; settings: THP-1
# Leishmania donovani [7] = experiment: as §2, with “Amastigotes/Macrophages.” for “Infected Macrophages.”, “Average number” for “Percent”, “amastigotes per” for “infected”, “cell” for “cells”; assay type: functional, organism-based, Homo sapiens; settings: THP-1
# Leishmania donovani [8] = experiment: as §2, with “THP-1 Host” for “Infected”, “THP-1 cell count” for “Percent of infected macrophage cells”; assay type: functional, organism-based, Homo sapiens
# [9] = test system: Trypanosoma brucei brucei; experiment: GSK_TCAKS: pIC50 Trypanosoma brucei viability assay using fluorescence intensity. Assay plates (1536-well) were prepared by dispensing 25nL of compound solution per well using an Echo acoustic dispenser (Labcyte).; assay type: functional, organism-based; settings: Lister 427, 2 h
# [10] = test system: Trypanosoma brucei brucei; experiment: GSK_TCAKS: pIC50 Trypanosoma brucei viability assay using luminiscence. Assay plates (1536-well) were prepared. T. brucei cultures were harvested and counted in a CASY cell counter. A parasite suspension was prepared at a final concentration of 5 * 10^4 cells/mL in complete HMI9 medium and 6uL was dispensed to all wells containing compounds using a Multidrop Combi dispenser. 6uL of HMI9 media with 0.4% DMSO were dispensed to control columns. Plates were incubated for 24 h at 37C, 5% CO2 then tempered for 10 min at room temperature. ATP content was quantified by adding 4 uL of CellTiter-Glo Reagent (Promega) according to the manufacturer's instructions. Luminescence was measured using a ViewLux.; assay type: functional, organism-based; settings: Lister 427, CASY
# [11] = GSK_TCAKS: pIC50 HepG2 human cell line viability assay using luminiscence. […] Seeding density was checked to ensure that new mono-layers were not more than 50% confluent at the time of harvesting. Cell suspension was added to 500 mL of the same medium at a final density of 1.2 * 10^5 cells/mL. This cell suspension was dispensed (25 uL, 3000 cells per well) into 384-well clear-bottom plates using a Multidrop Combi dispenser. Prior to addition of the cell suspension, the screening compounds (250 nL) were pre-dispensed into the plates with an Echo liquid handler. Plates were incubated for 48 h at 37C, 5% CO2. After incubation, plates equilibrated at room temperature for 30 min before proceeding to develop the luminescent signal. The signal developer, CellTiter-Glo Reagent, was allowed to equilibrate at room temperature for 30 min and added to the plates (25uL per well) using a Multidrop Combi dispenser. Plates were left for 10 min at room temperature for stabilization and then read using a ViewLux.; assay type: toxicity, cell-based
# NIH3T3 = experiment: GSK_TCAKS: pIC50 NIH 3T3 cell line viability assay using luminiscence. Tissue culture surface treated assay plates (1536-well) were used. […] The 100% cells survival control was determined exposing the host-cells to a 0.5% DMSO concentration, whereas the 100% toxicity control was achieved by seeding the cells in presence of Amphotericin B at 50uM. Plates were incubated for four days at 37C, 5% CO2. The assay readout was developed by addition of 5uL of CellTiter-Glo Reagent following the manufacturer's instructions. Luminiscence was measured using a ViewLux.; assay type: functional, cell-based; settings: Mus musculus, NIH3T3, 96 h
# [12] = target: Sterol 14-alpha demethylase (Trypanosoma cruzi (strain CL Brener), UniProt Q7Z1V1); experiment: GSK_TCAKS: pIC50 CYP51 from Trypanosoma cruzi.; assay type: functional
# Sequence of Sterol 14-alpha demethylase (Q7Z1V1 whole entry): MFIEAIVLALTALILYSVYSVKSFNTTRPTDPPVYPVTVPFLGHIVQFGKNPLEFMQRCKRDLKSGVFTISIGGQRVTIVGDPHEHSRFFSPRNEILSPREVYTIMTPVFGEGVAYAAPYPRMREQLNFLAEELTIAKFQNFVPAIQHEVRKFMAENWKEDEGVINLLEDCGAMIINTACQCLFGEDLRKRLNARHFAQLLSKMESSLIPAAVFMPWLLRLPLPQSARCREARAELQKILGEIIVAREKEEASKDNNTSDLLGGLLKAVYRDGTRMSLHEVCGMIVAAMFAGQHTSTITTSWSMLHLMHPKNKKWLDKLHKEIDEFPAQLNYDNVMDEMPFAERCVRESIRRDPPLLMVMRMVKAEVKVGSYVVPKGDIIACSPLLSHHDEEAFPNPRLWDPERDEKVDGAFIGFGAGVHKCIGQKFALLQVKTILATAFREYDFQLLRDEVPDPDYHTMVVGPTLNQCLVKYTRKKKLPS
SMILES,IC50 (Trypanosoma cruzi [1]),IC50 (Trypanosoma cruzi [2]),IC50 (Trypanosoma cruzi [3]),IC50 (Trypanosoma cruzi [4]),IC50 (Leishmania donovani [5]),IC50 (Leishmania donovani [6]),IC50 (Leishmania donovani [7]),IC50 (Leishmania donovani [8]),IC50 [9],IC50 [10],IC50 at 48 h [11],IC50 (NIH3T3),IC50 [12]
CCOc1cnn(C)c(=O)c1Nc1ccc(C(=O)NCc2ccc(F)cc2)cc1,0.251 µM,0.1 µM,0.126 µM,> 50.1 µM,31.6 µM,> 50.1 µM,> 50.1 µM,31.6 µM,> 39.8 µM,> 39.8 µM,> 100 µM,> 50.1 µM,3.98 µM
CN(Cc1nnnn1C1CCN(Cc2ccc(-n3ccnc3)cc2)CC1)c1ccc(F)cc1F,0.316 µM,0.316 µM,0.316 µM,> 50.1 µM,> 50.1 µM,> 50.1 µM,15.8 µM,> 50.1 µM,> 39.8 µM,> 39.8 µM,> 100 µM,25.1 µM,0.126 µM
CN(Cc1ccccc1)Cc1nnnn1C1CCN(Cc2ccc(-n3ccnc3)cc2)CC1,0.398 µM,0.316 µM,0.251 µM,> 50.1 µM,> 50.1 µM,> 50.1 µM,> 50.1 µM,31.6 µM,> 39.8 µM,> 39.8 µM,> 100 µM,3.98 µM,0.0501 µM
O=C(NC1C(=O)N(c2ccccc2)C1c1cccnc1)c1ccc(Cl)s1 (stereo not given),0.0316 µM,0.0501 µM,0.0398 µM,> 50.1 µM,1 µM,> 50.1 µM,0.794 µM,> 50.1 µM,> 39.8 µM,> 39.8 µM,> 100 µM,> 50.1 µM,0.2 µM
CCn1nccc1CN(C)C(=O)C=Cc1ccc(Cl)cc1,0.224 µM,0.316 µM,0.316 µM,> 50.1 µM,15.8 µM,> 50.1 µM,> 50.1 µM,> 50.1 µM,31.6 µM,> 39.8 µM,> 100 µM,> 50.1 µM,0.316 µM

# From ChEMBL document CHEMBL3430912, “GSK Tres Cantos Anti-Kinetoplastid Screening (TCAKS) Data”
